Key:
periostin gene = assay: Periostin mRNA expression by real-time PCR in human periodontal ligament cells; format: cell-based; conditions: average of three experiments
Description: (§1) Specifically, all experiments were performed with the consent of the patient after obtaining approval from the Hospital's Institutional Review Board, a periodontal ligament tissue attached to the root of a wisdom tooth was isolated and cut into double-sided pieces, placed in a 60 mm dish, and covered with a cover slip, and then cultured in Dulbecco's degenerated Eagle's Medium.
(§2) Total RNA from human periodontal ligament cells was isolated using a TRIzol reagent. cDNA was synthesized using 2 μg of total RNA, 1 μl of reverse transcriptase, and 0.5 μg of oligo (dT). cDNA of synthesized human periodontal ligament cells was used for a real-time polymerase chain reaction using primers shown in Table 2 below. A real-time polymerase chain reaction was performed in ABI PRISM 7500 sequence detection system (Applied Biosystems) using SYBR GREEN PCR Master Mix (Takara, Japan). The real-time polymerase chain reaction was performed at 94° C., 1 min; 95° C., 15 sec-60° C., 34 sec was performed under the condition of repeating 40 cycles. Results were analyzed using a comparative cycle threshold (CT) method.

BSP gene = assay: BSP mRNA expression by real-time PCR in human periodontal ligament cells; format: cell-based; conditions: average of three experiments
Description: as §1, §2

CAP gene = assay: CAP mRNA expression by real-time PCR in human periodontal ligament cells; format: cell-based; conditions: average of three experiments
Description: as §1, §2

[1] = tested on: three-wall periodontal defect; assay: Periodontium regeneration in periodontium damage animal model, histological evaluation; format: in vivo; conditions: beagle dog, collagen sponge containing 50 μg peptide, 3 months
Description: Four beagle dogs (12-16 kg; […]) were anesthetized by inhalation of Geloran, intravenously injected with Zoletil (5 mg/kg) and Xylazine (0.2-0.5 mg/kg), and then treated with Lidocaine (Lidocaine 2% with 1:80,000 epinephrine). The 4th premolar tooth and the 2nd molar tooth were extracted from the mandible of the beagle dog, and then the dog waited for healing for 3 months. After 3 months of healing, three-wall periodontal defect was induced on distal and mesial surfaces of a 1st molar tooth. Then, a periodontal damage of 4×4×4 mm was formed with the buccal and distal bones remaining around the tooth root, the root alveolar bone is securely removed, tooth root planing was performed using a curette, and then an incisor groove was formed using a ½ round bur. Next, an experimental group was transplanted with a collagen sponge (a peptide solution obtained by dissolving a peptide in physiological saline at a concentration of 1 μg/μl was prepared, 50 μl of a peptide solution was added to the EP tube, and then was soaked for 5 minutes to prepare the collagen sponge) including a 50 μl of peptide (SEQ ID NO: 16 of group 2) prepared in Example 1 at a defect region, After the defect, only a negative control (NC) without any treatment and a collagen sponge (prepared by soaking a collagen sponge in 50 μl of physiological saline for 5 minutes) was placed on the inner bone wall of a bone defect and a transplanted negative control (NC+Plug) was sacrificed 3 months later, and histological evaluation was performed. After 3 months, a beagle dog was sacrificed by administering an excessive amount (90-120 mg/kg) of pentobarbital. A tooth of the beagle dog was extracted, fixed with 10% formalin, and then calcium was removed by adding 5% formic acid, molded, and embedded in paraffin, to obtain a tissue section with a thickness of 5 μm. The obtained tissue section was stained with hematoxylin and eosin or collagen stained (Masson's Trichrome Staining) to confirm periodontal ligament regeneration and then analyzed using by an optical microscope equipped with a digital camera (LEICA ICC50 camera, Germany). After extraction of a 4th premolar tooth and a 2nd molar tooth from the mandibles of 4 beagle dogs, they waited for 3 months to heal, and After 3 months of healing, the 3-mural periodontal defect was induced in distal and mesial surfaces of a 1st molar tooth. Then, periodontium damage of 4×4×4 mm was formed with the buccal and distal bones remaining around the tooth root, the root alveolar bone is securely removed, tooth root planing was performed using a curette, and then an incisor groove was formed. Next, the experimental group transplanted a collagen sponge containing 50 μg of the peptide (SEQ ID NO: 16) of Example 1 to the defect region, and after the defect, a negative control (NC) without any treatment and control (NC+Plug) transplanted by placing only a collagen sponge on the inner bone wall of the bone defect was sacrificed 3 months later for histological evaluation.

[2] = Masson's trichrome stain, FIG. 6

Substance: 1 (KYKQRKKNYK) [compound 1]
- PERIOSTIN gene expression, relative mRNA expression level compared to the control, Average (periostin gene): 2.092
- BSP gene expression, relative mRNA expression level compared to the control, Average (BSP gene): 2.092
- CAP gene expression, relative mRNA expression level compared to the control, Average (CAP gene): 2.092

Substance: 2 (KYKQRKRNYK) [compound 2]
- PERIOSTIN gene expression, relative mRNA expression level compared to the control, Average (periostin gene): 2.361
- BSP gene expression, relative mRNA expression level compared to the control, Average (BSP gene): 2.361
- CAP gene expression, relative mRNA expression level compared to the control, Average (CAP gene): 2.361

Substance: 3 (KYKQRRKNYK) [compound 3]
- PERIOSTIN gene expression, relative mRNA expression level compared to the control, Average (periostin gene): 2.572
- BSP gene expression, relative mRNA expression level compared to the control, Average (BSP gene): 2.572
- CAP gene expression, relative mRNA expression level compared to the control, Average (CAP gene): 2.572

Substance: 4 (KYKQRRRNYK) [compound 4]
- PERIOSTIN gene expression, relative mRNA expression level compared to the control, Average (periostin gene): 2.702
- BSP gene expression, relative mRNA expression level compared to the control, Average (BSP gene): 2.702
- CAP gene expression, relative mRNA expression level compared to the control, Average (CAP gene): 2.702

Substance: 5 (KYKQKKKNYK) [compound 5]
- PERIOSTIN gene expression, relative mRNA expression level compared to the control, Average (periostin gene): 2.67
- BSP gene expression, relative mRNA expression level compared to the control, Average (BSP gene): 2.67
- CAP gene expression, relative mRNA expression level compared to the control, Average (CAP gene): 2.67

Substance: 6 (KYKQKRKNYK) [compound 6]
- PERIOSTIN gene expression, relative mRNA expression level compared to the control, Average (periostin gene): 2.705
- BSP gene expression, relative mRNA expression level compared to the control, Average (BSP gene): 2.705
- CAP gene expression, relative mRNA expression level compared to the control, Average (CAP gene): 2.705

Substance: 7 (KYKQKKRNYK) [compound 7]
- PERIOSTIN gene expression, relative mRNA expression level compared to the control, Average (periostin gene): 2.329
- BSP gene expression, relative mRNA expression level compared to the control, Average (BSP gene): 2.215
- CAP gene expression, relative mRNA expression level compared to the control, Average (CAP gene): 2.451

Substance: 8 (KYKQKRRNYK) [compound 8]
- PERIOSTIN gene expression, relative mRNA expression level compared to the control, Average (periostin gene): 2.021
- BSP gene expression, relative mRNA expression level compared to the control, Average (BSP gene): 2.021
- CAP gene expression, relative mRNA expression level compared to the control, Average (CAP gene): 2.021

Substance: 9 (KYKQRKKSYK) [compound 9]
- PERIOSTIN gene expression, relative mRNA expression level compared to the control, Average (periostin gene): 2.211
- BSP gene expression, relative mRNA expression level compared to the control, Average (BSP gene): 2.211
- CAP gene expression, relative mRNA expression level compared to the control, Average (CAP gene): 2.211

Substance: 10 (KYKQRKRSYK) [compound 10]
- PERIOSTIN gene expression, relative mRNA expression level compared to the control, Average (periostin gene): 2.811
- BSP gene expression, relative mRNA expression level compared to the control, Average (BSP gene): 2.811
- CAP gene expression, relative mRNA expression level compared to the control, Average (CAP gene): 2.811

Substance: 11 (KYKQRRKSYK) [compound 11]
- PERIOSTIN gene expression, relative mRNA expression level compared to the control, Average (periostin gene): 2.362
- BSP gene expression, relative mRNA expression level compared to the control, Average (BSP gene): 2.362
- CAP gene expression, relative mRNA expression level compared to the control, Average (CAP gene): 2.362

Substance: 12 (KYKQRRRSYK) [compound 12]
- PERIOSTIN gene expression, relative mRNA expression level compared to the control, Average (periostin gene): 2.211
- BSP gene expression, relative mRNA expression level compared to the control, Average (BSP gene): 2.211
- CAP gene expression, relative mRNA expression level compared to the control, Average (CAP gene): 2.211

Substance: 13 (KYKQKKKSYK) [compound 13]
- PERIOSTIN gene expression, relative mRNA expression level compared to the control, Average (periostin gene): 2.525
- BSP gene expression, relative mRNA expression level compared to the control, Average (BSP gene): 2.525
- CAP gene expression, relative mRNA expression level compared to the control, Average (CAP gene): 2.525

Substance: 14 (KYKQKRKSYK) [compound 14]
- PERIOSTIN gene expression, relative mRNA expression level compared to the control, Average (periostin gene): 2.836
- BSP gene expression, relative mRNA expression level compared to the control, Average (BSP gene): 2.836
- CAP gene expression, relative mRNA expression level compared to the control, Average (CAP gene): 2.836

Substance: 15 (KYKQKKRSYK) [compound 15]
- PERIOSTIN gene expression, relative mRNA expression level compared to the control, Average (periostin gene): 2.620
- BSP gene expression, relative mRNA expression level compared to the control, Average (BSP gene): 2.620
- CAP gene expression, relative mRNA expression level compared to the control, Average (CAP gene): 2.620

Substance: 16 (KYKQKRRSYK) [compound 16]
- PERIOSTIN gene expression, relative mRNA expression level compared to the control, Average (periostin gene): 2.403
- BSP gene expression, relative mRNA expression level compared to the control, Average (BSP gene): 2.606
- CAP gene expression, relative mRNA expression level compared to the control, Average (CAP gene): 2.467

Substance: KYKQKRRSYK [SEQ ID NO: 16, Group 2 peptide, 8th amino acid is serine (S)]
- incorporation of new periodontal ligament fiber bundle into alveolar bone and cementum [1, 2]: A new periodontal ligament fiber bundle was vertically incorporated in the newly formed alveolar bone and cementum
- new cementum-like tissue formation [1, 2]: new cementum-like tissue was observed along a tooth root surface
- new periodontal ligament-like tissue formation [1, 2]: new periodontal ligament-like tissue formation was also observed
- incorporation of new periodontal ligament into alveolar bone and cementum ([1]; hematoxylin/eosin, FIG. 5): New periodontal ligament was incorporated in the newly formed alveolar bone and cementum
- new cementum-like tissue formation ([1]; hematoxylin/eosin, FIG. 5): new cementum-like tissue was observed along a tooth root surface
- new periodontal ligament-like tissue formation ([1]; hematoxylin/eosin, FIG. 5): new periodontal ligament-like tissue formation was also observed
